Usually inhibition stands for the drop in the measured response relative to a control, in per cent.

Type in all cases: biochemical
Assay [1] relates to HSD1 enzyme that is expressed in rabbit placenta tissue. The assay can be described thus: Inhibition of E1 to E2 conversion in rabbit placenta tissue homogenate. The settings on record: for Rabbit placenta inhibition % @100 nM: inhibitor 100 nM, 30 nM estrone, 30 min.
For assay [2], the target named is T1, recombinant human 17β-HSD1 (Homo sapiens, UniProt P14061).
T1 construct: made in house; host or cells: Sd9 (Sf9) insect cells, baculovirus (Bac to Bac Expression System)
T1 sequence (P14061 1-328): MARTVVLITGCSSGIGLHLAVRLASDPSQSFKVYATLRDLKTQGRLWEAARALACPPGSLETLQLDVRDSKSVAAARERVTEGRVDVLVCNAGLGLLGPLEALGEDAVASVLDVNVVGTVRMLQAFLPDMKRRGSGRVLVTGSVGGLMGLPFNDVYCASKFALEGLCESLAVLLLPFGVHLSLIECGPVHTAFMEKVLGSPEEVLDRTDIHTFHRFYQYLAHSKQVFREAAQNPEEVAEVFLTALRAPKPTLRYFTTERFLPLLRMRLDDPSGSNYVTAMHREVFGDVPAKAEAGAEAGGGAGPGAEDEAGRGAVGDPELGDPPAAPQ
The assay can be described thus: Inhibition of recombinant human 17β-HSD1. To be noted: inhibitor 100 nM; 30 nM estrone, 1 mM NADPH, 30 min RT. In a few lines:
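Microsomes from Sf9 cells expressing human 17β-HSD1 (1 μg/ml) were incubated for 30 min at RT in 20 mM KH2PO4 pH 7.4 with 30 nM ³H-estrone, 1 mM NADPH and inhibitor at 1 μM or 0.1 μM (1% DMSO). Estrone-to-estradiol conversion was measured by radio-HPLC after TCA stop, and % inhibition was taken as 100 − % conversion.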

For assay [3], the target named is T2, recombinant human 17β-HSD2 (Homo sapiens, UniProt P37059).
T2 construct: made in house; host or cells: Sd9 (Sf9) insect cells, baculovirus (Bac to Bac Expression System)
T2 sequence (P37059 1-387): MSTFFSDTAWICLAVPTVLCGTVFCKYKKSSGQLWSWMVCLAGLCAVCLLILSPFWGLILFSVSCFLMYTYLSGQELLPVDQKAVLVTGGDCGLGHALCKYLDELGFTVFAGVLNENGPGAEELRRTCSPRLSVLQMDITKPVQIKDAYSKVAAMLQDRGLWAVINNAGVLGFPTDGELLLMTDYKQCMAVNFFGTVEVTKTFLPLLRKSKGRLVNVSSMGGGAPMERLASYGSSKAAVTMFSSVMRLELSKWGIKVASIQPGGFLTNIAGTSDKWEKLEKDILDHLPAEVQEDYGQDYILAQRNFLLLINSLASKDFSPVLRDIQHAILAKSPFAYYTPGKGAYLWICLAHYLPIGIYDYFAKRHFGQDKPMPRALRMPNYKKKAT
The assay can be described thus: Inhibition of recombinant human 17β-HSD2. The settings on record: inhibitor 1 μM; 50 nM estradiol, 1 mM NADH, 30 min RT. In a few lines: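 Sf9 baculovirus-expressed enzyme membrane extract (4 μg/ml) incubated 30 min at RT in 20 mM KH2PO4 pH 8.5 with 50 nM estradiol (³H-tracer) and 1 mM NADH, inhibitor at 1 μM or 0.1 μM, 1% DMSO. TCA-stopped; estradiol-to-estrone conversion by radio-HPLC, % inhibition = 100 − % conversion.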

With `Cc1cc(NC(=O)CC[C@@H]2C/C(=N\O)[C@@]3(C)CCC4c5ccc(F)cc5CCC4C23)no1` (stereo partly drawn) [Compound 134, 3-((13S,15R,E)-3-fluoro-17-(hydroxyimino)-13-methyl-7,8,9,11,12,13,14,15,16,17-decahydro-6H-cyclopenta[a]phenanthren-15-yl)-N-(5-methylisoxazol-3-yl)propanamide], the “Rabbit placenta inhibition % @100 nM” value in assay [1] stood at 46%. Moreover, the inhibition at 0.1 µM in assay [2] stood at 75%. For the same molecule, in assay [3], the inhibition at 1 µM is -3%.
Taken in the same sequence, the figures for `C[C@]12CCC3c4cccc(F)c4CCC3C1[C@H](CCC(=O)N1CCOCC1)C/C2=N\O` (stereo partly drawn) [Compound 136, 3-((13S,15R,E)-4-fluoro-17-(hydroxyimino)-13-methyl-7,8,9,11,12,13,14,15,16,17-decahydro-6H-cyclopenta[a]phenanthren-15-yl)-1-morpholinopropan-1-one] were 18%, 39% and -1%.
Regarding `C[C@]12CCC3c4cccc(F)c4CCC3C1[C@H](CCC(=O)Nc1cc(F)ccn1)C/C2=N\O` (stereo partly drawn) [Compound 140, 3-((13S,15R,E)-4-fluoro-17-(hydroxyimino)-13-methyl-7,8,9,11,12,13,14,15,16,17-decahydro-6H-cyclopenta[a]phenanthren-15-yl)-N-(4-fluoropyridin-2-yl)propanamide], the “Rabbit placenta inhibition % @100 nM” value in assay [1] was 24%. For the same molecule, the inhibition at 0.1 µM in assay [2] is 86%. The inhibition at 1 µM in assay [3] stood at 6%.
The like results for `C[C@]12CCC3c4cccc(F)c4CCC3C1[C@H](CCC(=O)Nc1ncccc1F)C/C2=N\O` (stereo partly drawn) [Compound 142, 3-((13S,15R,E)-4-fluoro-17-(hydroxyimino)-13-methyl-7,8,9,11,12,13,14,15,16,17-decahydro-6H-cyclopenta[a]phenanthren-15-yl)-N-(3-fluoropyridin-2-yl)propanamide] were, in that order, 34%, 93% and -1%.
Taken in the same sequence, the figures for `C[C@]12CCC3c4cccc(F)c4CCC3C1[C@H](CCC(=O)Nc1cccc(F)n1)C/C2=N\O` (stereo partly drawn) [Compound 144, 3-((13S,15R,E)-4-fluoro-17-(hydroxyimino)-13-methyl-7,8,9,11,12,13,14,15,16,17-decahydro-6H-cyclopenta[a]phenanthren-15-yl)-N-(6-fluoropyridin-2-yl)propanamide] were 24%, 74% and 10%.
In the case of `C[C@]12CCC3c4cccc(F)c4CCC3C1[C@H](CCC(=O)Nc1ncc(F)cc1F)C/C2=N\O` (stereo partly drawn) [Compound 146, N-(3,5-difluoropyridin-2-yl)-3-((13S,15R,E)-4-fluoro-17-(hydroxyimino)-13-methyl-7,8,9,11,12,13,14,15,16,17-decahydro-6H-cyclopenta[a]phenanthren-15-yl)propanamide], in assay [1] (inhibitor 1000 nM), the “Rabbit placenta inhibition % @1000 nM” value is reported as 63% @. Also, the inhibition at 0.1 µM in assay [2] came out at 92%. Moreover, in assay [3], the inhibition at 1 µM stood at 8%.
For the molecule `C[C@]12CCC3c4cccc(F)c4CCC3C1[C@H](CCC(=O)Nc1ccc(C#N)cn1)C/C2=N\O` (stereo partly drawn) [Compound 148, N-(5-cyanopyridin-2-yl)-3-((13S,15R,E)-4-fluoro-17-(hydroxyimino)-13-methyl-7,8,9,11,12,13,14,15,16,17-decahydro-6H-cyclopenta[a]phenanthren-15-yl)propanamide], the “Rabbit placenta inhibition % @100 nM” value in assay [1] was determined as 35%. Also, the inhibition at 0.1 µM in assay [2] amounted to 90%. Also, in assay [3], the inhibition at 1 µM stood at 9%.
Taken in the same sequence, the figures for `C[C@]12CCC3c4ccc(F)cc4CCC3C1[C@H](CCC(=O)Nc1ncccc1F)C/C2=N\O` (stereo partly drawn) [Compound 150a, 3-((13S,15R,E)-3-fluoro-17-(hydroxyimino)-13-methyl-7,8,9,11,12,13,14,15,16,17-decahydro-6H-cyclopenta[a]phenanthren-15-yl)-N-(3-fluoropyridin-2-yl)propanamide] were 10%, 74% and 0%.

The record behind these values is US20240309043A1, “THERAPEUTICALLY ACTIVE STEROIDAL DERIVATIVES” (Organon R&D Finland Ltd., priority 2017, published 2024).
